How the values were obtained:
[1] = test system: male Syrian golden hamsters; experiment: golden hamster seed finding model of anxiety; assay type: in vivo, Mesocricetus auratus
Text: Clavulanic acid (CLAV) is structurally similar to the beta-lactam antibiotics. A most robust and simple bioassay for screening beta-lactams for CNS activity is the golden hamster seed finding model of anxiety. Briefly, hamsters are deprived of food overnight. The following day they are exposed to the additional stress of being taken from their home cage and placed in a novel environment for a few minutes. This manipulation stimulates the release of the stress hormone cortisol (FIG. 13). During their absence from the home cage, sunflower seeds are hidden under the bedding in one of the corners. When returned to the home cage, hamsters routinely scramble along the walls for 1-2 min before settling down, locating and eating the seeds. However, animals treated with the benzodiazepine anxiolytic chlordiazepoxide find seeds in less than 10 sec.
Male, Syrian golden hamsters (Mesocricetus auratus) (120-130 g) obtained from Harlan Sprague-Dawley Laboratories (Indianapolis, Ind.) were housed individually in Plexiglas cages (24 cm×24 cm×20 cm), maintained on a reverse light:dark cycle (14L: 10D; lights on at 19:00 hr) and provided food and water ad libitum. A range of concentrations of CLAV (saline vehicle, 0.1, 1.0, 10, 100 1,000 ng/kg) were tested in six groups of hamsters (4-8/group)(FIG. 1). All tests were conducted during the dark phase of the circadian cycle under dim red illumination. Prior to testing all animals were fasted for 20-24 hrs. Ninety min after intraperitoneal (IP) injection of drug, animals were taken from their home cage and placed into a holding cage for 2 min. During their absence, six sunflower seeds were buried under the bedding in one corner of their home cage. Animals were placed back into their home cage randomly facing any one of the empty corners and timed for their latency to find the seeds in a five min observation period. Latency times were analyzed with a one-way ANOVA followed by Scheffe's post hoc tests. Assumption of equal variances was tested (Hartley's F-max=2.1 p>0.05)
It was hypothesized that CLAV functioned as an anxiolytic in the seed finding assay by blocking NAALADase activity in the brain. If this notion were true then it would be predicted that drugs known to block NAALADase should also enhance seed finding. To this end, animals were treated with N-acetyl-beta-aspartyl-glutamic acid (beta-NAAG), a competitive inhibitor of NAALADase (Serval et al., 1992) and tested in the seed finding model of anxiety. The study was similar to that outlined in Section I with one notable exception. […] Beta-NAAG (FW 304) was given in a dose of 3 ng in a volume of 1 μl saline ICV. The average adult hamster brain weights ca. 1.2 g of which 22% is extracellular fluid. The estimated beta-NAAG concentration was 11 ng/ml or 36 nM.
Two groups of six animals each were fasted overnight as previously described and tested the following day. One group was treated with beta-NAAG and the other saline vehicle and one hr later timed for latency to find the hidden sunflower seeds. A Student t-test for unpaired data was used for statistical comparisons.

[2] = test system: neurogenic NAALADase; experiment: animal tests of neuroactivity, effective dose; assay type: in vivo, hamsters and other test species
[3] = test system: male Wistar rats; experiment: elevated plus-maze; assay type: in vivo, rat
Text: The elevated plus-maze was developed for screening anxiolytic and anxiogenic drug effects in the rat (Pellow et al., 1985). The method has been validated behaviorally, physiologically, and pharmacologically. The plus-maze consists of two open arms and two enclosed arms. […] Conversely, anxiogenic compounds like yohimbin or amphetamines reduce open arm entries and time spent in the open arms.
Male Wistar rats weighing 250-300 g were group housed in a normal 12:12 light-dark cycle with light on at 0800 hr and provided food and water ad libitum. The plus-maze consisted of two open arms, 50 cm long, 10 cm wide, […]. The two closed arms had the same dimensions but included a roof. The Plexiglas for the closed arms was painted black. Each pair of arms was arranged opposite to each other to form the plus-maze. The maze was elevated to a height of 50 cm. Eighteen animals were tested in the plus-maze 90 min following the IP injection of 1.0 μg/kg CLAV, 50 or vehicle control in a volume of ca. 0.3 ml. The order of treatments was counter balanced with at least 48 hrs between injections. At the start of the experiment, the animal was placed at the end of one of the open arms. Over a five min observation period, animals were scored for the latency to enter the closed arm, time spent in the closed arm and the number of open arm entries following the first occupation of the closed arm. The study produced tables of repeated measures. The data between treatments were compared with a two-way, repeated measures ANOVA followed by Bonferroni post hoc tests.
Chlordiazepoxide (Librium®) is a commonly prescribed anxiolytic that has been thoroughly characterized in preclinical studies. The effective anxiolytic dose in the plus-maze is 10-25 mg/kg (Lister 1987; File and Aranko 1988; Shumsky and Lucki 1994). […] However, it was discovered animals develop a tolerance to the motor depression with repeated daily administration of CDP for several days (Shumsky and Lucki 1994). […] While CLAV has no effect on motor activity it was necessary to treat an equal number of rats with daily injections of CLAV (100 ng/kg) to insure a balanced experimental design. In addition there was a third group of rats (n=6) receiving daily injections of saline vehicle. The study reported in Section II tested CLAV at 1 μg/kg in the plus-maze. […] For this reason CLAV was tested at 100 ng/kg in these studies.

[4] = 1.0 μg/kg IP, 90 min, vs vehicle
[5] = daily IP 7 days, CLAV 100 ng/kg, CDP 10 mg/kg, vs vehicle

With `CO[C@@]1(NC(=O)C(C(=O)O)c2ccc(O)cc2)C(=O)N2C(C(=O)O)=C(CSc3nnnn3C)CO[C@@H]21` (stereo partly drawn) [Moxalactam, 7-β-[2-carboxy-2-(4-hydroxyphenyl)acetamido]-7α-methoxy-3-[[(1-methyl-1H-tetrazol-5-yl)thio]methyl]-1-oxa-1-dethia-3-cephem-4-carboxylic acid] the “change of seed finding time” value ([1]; dose not given) was “reduction in seed finding time from minutes to seconds”, the “dose exhibiting significant dose responsive neuroactivity” value ([2]; administered parenterally) was “about 50 μg/kg of body weight” and the threshold effective dose ([2]; administered parenterally) was “about 50 βg/kg of body weight”. The “effective minimum neurogenic protease inhibiting concentration in the brain” value ([2]; based on animal test data and known brain distribution) was “about 30 nM”, the minimum effective dose ([2]; parenterally, hamsters and other test species) was “about 50 micrograms per kg of body weight” and the anxiolytic action ([3]; i.p. at 50 micrograms/kg, rats) was “acts as an anxiolytic in rats”.
In the case of `O=C(O)[C@H]1/C(=C/CO)O[C@@H]2CC(=O)N21` [CLAV, clavulanic acid], the “latency to find the sunflower seeds vs vehicle” value ([1]; 1 ng/kg IP, 90 min) is reported as “not significantly different from vehicle control”, the “estimated concentration in extracellular water at the 10 ng/kg dose” value ([1]; 1.25 ng in 27.5 ml) is reported as 0.045 ng/ml and about 200 pM and the “effective dose (maximal efficacy) in the seed finding test” value ([1]; IP) is reported as 0.01 µg/kg. For the same molecule, the “latency to find the sunflower seeds” value ([1]; doses of 10 ng and above, IP, 90 min, vehicle 104 sec) was “less than 8.0 sec”, the “estimated concentration in the brain at the 10 ng/kg dose” value ([1]; from CSF/plasma ratio 0.25) was “around 50 pM” and the “dose effective to inhibit neurogenic NAALADase” value ([2]; i.p.) was “less than 1 microgram per kilogram of body weight”. For the same molecule, the “dose showing activity similar to moxalactam (aggression, spatial learning, anxiolytic)” value ([2]; i.p.) was “less than 1 microgram/kg”, the “dose exhibiting dose responsive neuroactivity” value ([2]; levels as low as) was 0.01 µg/kg and the “activity in the plus-maze (summary)” value ([3]; 1 μg/kg) was “anxiolytic activity”. For the same molecule, the “latency to enter the dark (closed arm)” value [3, 4] was “stayed in the starting open light position longer”, the open arm entries [3, 4] was “increased movement into the lighted open arms” and the “time spent in the open arm” value [3, 4] was “significantly increased”. The open arm entries ([3]; daily IP 7 days, CLAV 100 ng/kg, CDP 10 mg/kg) was “no significant difference between treatments”, the “latency to enter the dark closed arms” value [3, 5] was “significantly greater” and the “time spent exposed to light in the open arms” value [3, 5] was “significantly greater”.
